# Reference: patent US20240173285A1, “COMPOSITIONS COMPRISING EPA AND METHODS OF USING THE SAME FOR TREATING AND/OR PREVENTING ENDOTHELIAL DYSFUNCTION IN A SUBJECT” (Amarin Pharmaceuticals Ireland Limited, priority 2021, published 2024)
# How the values were obtained:
# HUVECs [1] = test: NO release from HUVECs measured with tandem porphyrinic nanosensors; assay type: cell-based, human; conditions: for NO Release: then IL-6 12 ng/ml 24 h, calcium ionophore, mean ± SEM, N = 4-5
# Description: (§1) Human pulmonary ECs (PECs) and umbilical vein ECs (HUVECs) were treated with vehicle or EPA (40/10 μM in PECs/HUVECs) and IL-6 (12 ng/ml) for 24 hours. Proteomic analysis was performed using liquid chromatography/mass spectroscopy. […] NO release was measured in HUVECs using tandem porphyrinic nanosensors following stimulation with calcium.
# NO release from HUVECs was measured as previously described. Briefly, in parallel with the cellular preparations for proteomic analysis, HUVECs were stimulated with calcium ionophore and NO was measured using tandem porphyrinic nanosensors.
# [2] = Clinical study of human participants exposed to high-dose ethyl EPA; assay type: in vivo; conditions: high-dose exposure
# Text: Based on a clinical study of human participants, the inventors have discovered that exposure to a high-dose ethyl EPA (i.e., […]) is associated with fewer anemia AEs and higher hemoglobin and hematocrit. High-dose ethyl EPA exposure is also associated with higher levels of the heme derivative bilirubin, which is a potent antioxidant. […] Both biliverdin and bilirubin are potent antioxidants, but bilirubin is likely the stronger of the two. Bilirubin can be converted back into biliverdin rather than being eliminated, thus perpetuating both compounds' antioxidant effects.
# HUVECs [3] = test: Peroxynitrite (ONOO-) release from HUVECs measured with porphyrinic nanosensor; assay type: cell-based, human; conditions: 10 μM 2 hours, then IL-6 12 ng/ml 24 h; for ONOO- Release: calcium ionophore, mean ± SEM, N = 4-5
# Text: FIG. 5 is a schematic illustration of the ONOO— assay. The nanosensor is used to quantitate endothelial NO and ONOO— release in real time and is made by depositing a sensing material on the tip of carbon fiber with a diameter of only 0.5 μm. The fiber is sealed with nonconductive epoxy and electrically connected to wires (gold, copper) with conductive silver epoxy. Conductive films of polymeric Ni(II) tetrakis (3-methoxy-4-hydroxyphenyl) porphyrin and Mn(III) paracyclophanylporphyrin were used for the NO and ONOO— sensors, respectively.
# Release of ONOO— from HUVECs was measured as previously described. Briefly, in parallel with the cellular preparations for proteomic analysis, HUVECs were stimulated with calcium ionophore and ONOO— was measured using a porphyrinic nanosensor (FIG. 5).
# Human pulmonary ECs = test: Proteomic analysis (LC/MS) of pulmonary ECs treated with EPA after IL-6 exposure; assay type: cell-based; conditions: IL-6 12 ng/ml 2 hours, then EPA 24 h
# Description: Human pulmonary ECs were treated with vehicle or EPA for 24 h after exposure to IL-6 at 12 ng/ml for 2 hours. Proteomic analysis was performed using liquid chromatography/mass spectroscopy to capture relative expression levels. Only significant changes in protein expression between treatment groups >1-fold with a p-value less than 0.05 were analyzed.
# [4] = system: heme oxygenase-1 (HMOX-1); test: HMOX-1 expression relative to IL-6 in HUVECs (LC/MS proteomics); assay type: cell-based, human; conditions: 10 μM 2 hours, then IL-6 12 ng/ml 24 h
# Description: (§2) HUVECs were treated with vehicle, EPA, or DHA (10 μM) for 2 hours, and then challenged with IL-6 (12 ng/ml) for 24 h hours. After incubation, cells were pelleted and frozen at −80° C. until proteomic analysis was performed. Cell pellets were lysed using methanol/chloroform extraction. Proteins were denatured, reduced, alkylated, and trypsin digested. Samples were then prepared for Tandem Mass Tag (TMT) 10plex labeling. A bicinchoninic acid (BCA) assay was performed on each sample to quantify the total protein in each sample, which is important to confirm equal amounts of each sample are added to the multiplex sample. Each peptide in a sample was given a unique, low molecular weight (typically 126-130 Da), and then the samples were combined. Relative protein expression levels among the various treatments were measured using LC/MS proteomic techniques. Following protein digest, peptides are separated over a reverse phase column and then identified based on their mass.
# Each multiplexed sample was then fractionated to increase the overall protein coverage using high pH reversed phase fractionation and analyzed by LC/MS using a Dionex UltiMate 3000 RSLC in tandem with a Q-Exactive/Lumos Orbitrap Mass Spectrometer. The chromatography was performed using a 2-hour gradient on a Thermo Pepmap C18 column (100 Å pore size, 3.0 μm particle size, […]×150 mm) set at 50° C. […]
# [5] = system: umbilical vein ECs (HUVECs); test: Proteomic analysis (LC/MS) of HUVECs treated with EPA and IL-6 for 24 hours; assay type: cell-based, human; conditions: EPA 10 μM + IL-6 12 ng/ml
# Description: as §1, with “Human pulmonary ECs (PECs) and umbilical vein ECs (HUVECs) were treated with vehicle or EPA (40/10 μM in PECs/HUVECs) and IL-6 (12 ng/ml) for 24 hours. Proteomic analysis was performed using liquid chromatography/mass spectroscopy. […] Human” for “Human”
# [6] = system: Human pulmonary ECs (PECs); test: Proteomic analysis (LC/MS) of pulmonary ECs treated with EPA and IL-6 for 24 hours; assay type: cell-based; conditions: EPA 40 μM + IL-6 12 ng/ml
# Description: as §1, with “Human pulmonary ECs (PECs) and umbilical vein ECs (HUVECs) were treated with vehicle or EPA (40/10 μM in PECs/HUVECs) and IL-6 (12 ng/ml) for 24 hours. Proteomic analysis was performed using liquid chromatography/mass spectroscopy. […] Human” for “Human”
# Human PECs = test: Fatty acid content of PECs by GC/MS; assay type: cell-based; conditions: PECs pretreated with EPA 40 μM, IL-6
# Description: Human PECs were pretreated with vehicle or EPA (40 μM) for 2 hours, then challenged with IL-6 at 12 ng/ml for 24 hours. Proteomic analysis was performed using LC/MS to capture relative expression levels. Only significant changes in protein expression between treatment groups >2-fold were analyzed. Levels of intercellular adhesion molecule-1 (ICAM-1) were measured by immunochemistry. EPA, docosahexaenoic acid (DHA), docosapentaenoic acid (DPA), palmitic acid (PA), linoleic acid (LA) and arachidonic acid (AA) content was measured by GC/MS.
# [7] = system: Platelet endothelial cell adhesion molecule 1 (PECAM-1); test: PECAM-1 expression relative to IL-6 in HUVECs (LC/MS proteomics); assay type: cell-based, human; conditions: 10 μM 2 hours, then IL-6 12 ng/ml 24 h
# Description: as §2, with “AA” for “DHA”, “mass. Each multiplexed sample was then fractionated to increase the overall protein coverage using high pH reversed phase fractionation and analyzed by LC/MS using a Dionex UltiMate 3000 RSLC in tandem with a Q-Exactive/Lumos Orbitrap Mass Spectrometer. The chromatography was performed using a 2-hour gradient on a Thermo Pepmap C18 column (100 Å pore size, 3.0 μm particle size, […]×150 mm) set at 50° C. […]” for “mass.”
molecule,measurement,setting,value
"CC/C=C\C/C=C\C/C=C\C/C=C\C/C=C\C/C=C\CCC(=O)O [DHA, docosahexaenoic acid, reference compound]",NO Release,HUVECs [1]; 10 μM 2 hours,404 ± 15 nM
"CC/C=C\C/C=C\C/C=C\C/C=C\C/C=C\CCCC(=O)OCC [ethyl EPA, eicosapentaenoic acid ethyl ester]",anemia AEs,[2],fewer
IL-6: cytokine interleukin-6 used to challenge endothelial cells (12 ng/ml) [reference compound],ONOO- Release,HUVECs [3],217 ± 10 nM
same,NO Release,HUVECs [1]; 10 μM 2 hours,371 ± 14 nM
"CC/C=C\C/C=C\C/C=C\C/C=C\C/C=C\CCCC(=O)O [EPA, eicosapentaenoic acid]",ACE level reduction,Human pulmonary ECs,1.1 fold
same,ECE-1 level reduction,Human pulmonary ECs,1.3 fold
same,Hsp90 increase compared to IL-6,Human pulmonary ECs,1.1 fold
same,caveolin-1 downregulation compared to IL-6,Human pulmonary ECs,1.3 fold
same,"HMOX-1 Expression Relative to IL-6, Fold Change Increase",[4],1.58 fold
same,upregulation of inducible HMOX-1 compared to IL-6 alone,[4],160%
same,decrease of ONOO— release relative to IL-6 alone,HUVECs [3],17%
same,ONOO- Release,HUVECs [3],181 ± 10 nM
same,Platelet endothelial cell adhesion molecule (PECAM) downregulation,[5],1.2 fold
same,heme-oxygenase-1 increase,[5],1.6 fold
same,integrin alpha-V decrease,[5],1.5 fold
same,superoxide dismutase increase,[5],1.6 fold
same,Platelet endothelial cell adhesion molecule (PECAM) downregulation,[6],1.2 fold
same,amyloid-beta precursor protein decrease,[6],1.1 fold
same,heme-oxygenase-1 increase,[6],1.9 fold
same,integrin alpha-V decrease,[6],1.1 fold
same,thrombin receptor decrease,[6],1.3 fold
same,reduction of PA (palmitic acid) levels,Human PECs,34%
same,"PECAM-1 Expression Relative to IL-6, Fold Change Increase",[7],1.22 fold
same,decrease in PECAM-1,[7],120%
same,increase of NO release compared to IL-6 alone,"HUVECs [1]; 10 μM 2 hours, then IL-6 12 ng/ml 24 h (Example 5)",13%
same,NO Release,HUVECs [1]; 10 μM 2 hours,421 ± 12 nM
same,increase of NO release relative to IL-6 alone,"HUVECs [1]; EPA 10 μM and IL-6 12 ng/ml 24 hours, calcium stimulation (Example 2)",13%
"CCCCC/C=C\C/C=C\C/C=C\C/C=C\CCCC(=O)O [AA, arachidonic acid, reference compound]",ONOO- Release,HUVECs [3],194 ± 9 nM
